Consider one compound from patent US7465815B2, “Cannabinoid receptor modulator” (priority 2003, dated 2008).

In one experiment the target is T1, human CB1 receptor (Homo sapiens, UniProt P21554).
T1 construct: expressed in transfected cells; host or cells: CHO cells (membrane fraction)
Kind of experiment: [3H]-CP55,940 binding inhibition assay, CHO cell membrane fraction expressing human CB1 receptor. As to the method:
(§1) [^3H]-CP55,940 binding assay with a cell membrane fraction expressing human CB1 and CB2 receptor
(§2) [^3H]-CP55940 binding inhibition assay was conducted by incubating a CHO cell membrane fraction expressing human CB1 receptor and the test compound and 500 pM [^3H]-CP55940 in reaction buffer (50 mM Tris-HCl (pH7.4), 5 mM MgCl2, 2.5 mM EDTA and 0.5% BSA (fatty acid free)) at room temperature for 60 minutes. The reaction solution was filtered through GF/C filter, washed with 300 μl of washing buffer (50 mM Tris-HCl (pH7.4), 0.05% BSA (fatty acid free)) four times, and the radioactivity of the filter was measured with a Top Count scintillation counter (Packard). As results, the test compound has inhibited binding of [^3H]-CP55940 to the membrane fraction dose-dependently.
(§3) The inhibitory activity of the test compound to [^3H]-CP55940 binding was calculated by percent on the basis that radioactivity is 100% when only 500 pM [^3H]-CP55940 was added, and 0% when 500 pM [^3H]-CP55940 and 100 nM CP55940 were added at the same time. Further, IC50 value of the test compound was calculated by analyzing concentrations and percents of the test compound with PRISM 3.0 (Graphpad Software, Inc.).

The next experiment addresses T2, human CB2 receptor (Homo sapiens, UniProt P34972).
T2 construct: expressed in transfected cells; host or cells: CHO cells (membrane fraction)
The experiment can be described thus: [3H]-CP55,940 binding inhibition assay, CHO cell membrane fraction expressing human CB2 receptor. As for the experimental part: as §1, §2, §3
The same assay was also conducted for a CHO cell membrane fraction expressing human CB2 receptor, and the inhibitory activity to [^3H]-CP55940 binding was calculated.

The target of another experiment is T3, CB1 receptor (Mus musculus, UniProt P47746).
T3 construct: from tissue; host or cells: whole animal, Jcl: ICR male mice
T3 sequence (P47746 whole entry): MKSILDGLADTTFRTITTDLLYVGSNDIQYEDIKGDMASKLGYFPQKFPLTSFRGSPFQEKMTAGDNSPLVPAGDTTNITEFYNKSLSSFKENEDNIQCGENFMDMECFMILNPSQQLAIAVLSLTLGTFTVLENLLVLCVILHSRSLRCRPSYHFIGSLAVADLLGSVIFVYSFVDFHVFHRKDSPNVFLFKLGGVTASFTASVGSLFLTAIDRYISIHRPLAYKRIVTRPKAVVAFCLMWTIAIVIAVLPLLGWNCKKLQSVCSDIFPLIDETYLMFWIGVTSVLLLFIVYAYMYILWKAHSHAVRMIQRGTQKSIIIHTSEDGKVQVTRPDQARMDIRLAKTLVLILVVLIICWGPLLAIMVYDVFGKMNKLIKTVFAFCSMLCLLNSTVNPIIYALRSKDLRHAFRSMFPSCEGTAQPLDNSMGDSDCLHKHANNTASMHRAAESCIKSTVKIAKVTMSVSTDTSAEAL
The experiment can be described thus: Body temperature-lowering action on mouse (CB1 receptor agonistic activity in vivo). As to conditions: Jcl: ICR male mice, 1 mg/kg i.p., rectal temperature 30 minutes after administration, compared with control group. As for the experimental part: Body temperature-lowering action on mouse
CB1 receptor agonistic activity of the compound of the present invention in vivo was evaluated by investigating the effect on the body temperature of mouse after the drug was administered to the mouse. In this experiment, Jcl: ICR male mice (5 weeks old) were used. After measuring the rectal temperature with a thermometer (Physitemp BAT-12) that was connected to a probe for measuring body temperature, the compound dissolved in 2.2% EtOH and 5% G2-β-cyclodextrin (solvent) was administered intraperitoneally. Solvent only was administered to the control group. 30 minutes after administration, rectal temperature was measured again. The experiment was conducted for 4 subjects per a group.

T2 sequence (P34972 whole entry): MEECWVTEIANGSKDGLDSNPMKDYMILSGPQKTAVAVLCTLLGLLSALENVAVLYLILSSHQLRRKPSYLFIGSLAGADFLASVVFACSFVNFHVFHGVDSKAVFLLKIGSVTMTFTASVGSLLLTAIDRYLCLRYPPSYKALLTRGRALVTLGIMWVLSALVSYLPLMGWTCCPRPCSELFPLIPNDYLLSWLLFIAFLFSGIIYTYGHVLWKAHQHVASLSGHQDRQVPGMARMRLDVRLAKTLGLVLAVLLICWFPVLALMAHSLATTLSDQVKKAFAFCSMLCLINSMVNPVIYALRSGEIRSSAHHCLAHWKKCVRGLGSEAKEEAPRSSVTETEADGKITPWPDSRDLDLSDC
T1 sequence (P21554 whole entry): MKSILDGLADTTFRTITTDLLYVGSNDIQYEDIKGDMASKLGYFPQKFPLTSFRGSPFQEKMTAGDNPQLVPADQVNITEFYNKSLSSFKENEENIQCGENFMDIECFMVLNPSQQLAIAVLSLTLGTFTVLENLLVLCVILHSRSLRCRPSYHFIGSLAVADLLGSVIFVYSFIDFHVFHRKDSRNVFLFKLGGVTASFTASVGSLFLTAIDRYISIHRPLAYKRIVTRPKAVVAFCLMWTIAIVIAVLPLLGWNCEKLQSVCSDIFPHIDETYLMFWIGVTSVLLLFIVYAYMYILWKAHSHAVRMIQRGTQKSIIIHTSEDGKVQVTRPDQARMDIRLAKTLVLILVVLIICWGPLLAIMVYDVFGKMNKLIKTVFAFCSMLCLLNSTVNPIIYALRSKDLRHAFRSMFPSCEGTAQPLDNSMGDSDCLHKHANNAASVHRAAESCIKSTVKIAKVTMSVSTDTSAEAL

As for `CCc1c(C)c(NC(=O)CC(C)(C)C)c(C)c2c1OCC2c1ccc(C(C)C)cc1` (stereo not drawn) [Example 23, N-(7-Ethyl-3-(4-isopropylphenyl)-4,6-dimethyl-2,3-dihydro-1-benzofuran-5-yl)-3,3-dimethylbutanamide], the IC50 at human CB1 receptor and on human CB2 receptor was under 10 nM each time. Moreover, the “Test Results (body temperature-lowering action)” value on CB1 receptor is “Effective (estimated as effective if the compound of the present invention lowered the body temperature substantially by 1 °C or more when compared with the control group 30 minutes after administration of 1 mg/kg, i.p.)”.
